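Where inhibition never reached the appropriate level, the endpoint shown equals the highest concentration tested. Otherwise, values were interpolated linearly from a five-concentration, 48-hour dose response in 96-well plates. Abbreviation: GI50, concentration required for 50% inhibition of growth.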 Active and inactive are the calls of the source. No stated cut-off is given here; in the data, active = GI50 up to about 1.1 µM and inactive = higher.
Tests used:
Assay in all cases: growth of human tumour cells (NCI), 48 h
HCT-116 = tested on: HCT-116
OVCAR-4 = tested on: OVCAR-4
CCRF-CEM = tested on: CCRF-CEM
LOX IMVI = tested on: LOX IMVI
OVCAR-5 = tested on: OVCAR-5
SF-539 = tested on: SF-539
UACC-62 = tested on: UACC-62
TK-10 = tested on: TK-10
SK-MEL-28 = tested on: SK-MEL-28
IGROV-1 = tested on: IGROV-1
A549 = tested on: A549
Hs-578T = tested on: Hs-578T
Malme-3M = tested on: Malme-3M
HOP-92 = tested on: HOP-92
SK-MEL-5 = tested on: SK-MEL-5
SN12C = tested on: SN12C
SR = tested on: SR
EKVX = tested on: EKVX
MDA-MB-435 = tested on: MDA-MB-435
MCF7 = tested on: MCF7
PC-3 = tested on: PC-3
RXF 393 = tested on: RXF 393
MOLT-4 = tested on: MOLT-4
K562 = tested on: K562
NCI-H23 = tested on: NCI-H23
KM12 = tested on: KM12
COLO 205 = tested on: COLO 205
RPMI-8226 = tested on: RPMI-8226
U-251 = tested on: U-251
SF-295 = tested on: SF-295
ACHN = tested on: ACHN
SK-OV-3 = tested on: SK-OV-3
OVCAR-3 = tested on: OVCAR-3
BT-549 = tested on: BT-549
NCI-H226 = tested on: NCI-H226
SNB-19 = tested on: SNB-19
M14 = tested on: M14
HL-60 = tested on: HL-60
HT-29 = tested on: HT-29
DU-145 = tested on: DU-145
T47D = tested on: T47D
786-0 = tested on: 786-0
HCT-15 = tested on: HCT-15
MDA-MB-231 = tested on: MDA-MB-231
OVCAR-8 = tested on: OVCAR-8
HCC 2998 = tested on: HCC 2998
NCI-H460 = tested on: NCI-H460
SF-268 = tested on: SF-268
HOP-62 = tested on: HOP-62
MDA-N = tested on: MDA-N
SW-620 = tested on: SW-620
SK-MEL-2 = tested on: SK-MEL-2
SNB-75 = tested on: SNB-75
UO-31 = tested on: UO-31
UACC-257 = tested on: UACC-257
NCI/ADR-RES = tested on: NCI/ADR-RES
A498 = tested on: A498
CAKI-1 = tested on: CAKI-1
NCI-H522 = tested on: NCI-H522

`CCOC(=O)CC(=O)C(=O)NN=C1NCCCN1` was tested, and the GI50 (HCT-116) was > 100 µM (inactive), the GI50 (OVCAR-4) was > 100 µM (inactive) and the GI50 (CCRF-CEM) was > 100 µM (inactive). For the same compound, the GI50 (LOX IMVI) was > 100 µM (inactive), the GI50 (OVCAR-5) was > 100 µM (inactive) and the GI50 (SF-539) was > 100 µM (inactive). The GI50 (UACC-62) was > 100 µM (inactive), the GI50 (TK-10) was > 100 µM (inactive) and the GI50 (SK-MEL-28) was > 100 µM (inactive). For the same compound, the GI50 (IGROV-1) was > 100 µM (inactive), the GI50 (A549) was > 100 µM (inactive) and the GI50 (Hs-578T) was > 100 µM (inactive). The GI50 (Malme-3M) was > 100 µM (inactive), the GI50 (HOP-92) was > 100 µM (inactive) and the GI50 (SK-MEL-5) was > 100 µM (inactive). For the same compound, the GI50 (SN12C) was > 100 µM (inactive), the GI50 (SR) was > 100 µM (inactive) and the GI50 (EKVX) was > 100 µM (inactive). The GI50 (MDA-MB-435) was > 100 µM (inactive), the GI50 (MCF7) was > 100 µM (inactive) and the GI50 (PC-3) was > 100 µM (inactive). For the same compound, the GI50 (RXF 393) was > 100 µM (inactive), the GI50 (MOLT-4) was > 100 µM (inactive) and the GI50 (K562) was > 100 µM (inactive). The GI50 (NCI-H23) was > 100 µM (inactive), the GI50 (KM12) was > 100 µM (inactive) and the GI50 (COLO 205) was > 100 µM (inactive). For the same compound, the GI50 (RPMI-8226) was > 100 µM (inactive), the GI50 (U-251) was > 100 µM (inactive) and the GI50 (SF-295) was > 100 µM (inactive). For the same compound, the GI50 (ACHN) was > 100 µM (inactive), the GI50 (SK-OV-3) was > 100 µM (inactive) and the GI50 (OVCAR-3) was > 100 µM (inactive). For the same compound, the GI50 (BT-549) was > 100 µM (inactive), the GI50 (NCI-H226) was > 100 µM (inactive) and the GI50 (SNB-19) was > 100 µM (inactive). For the same compound, the GI50 (M14) was > 100 µM (inactive), the GI50 (HL-60) was > 100 µM (inactive) and the GI50 (HT-29) was > 100 µM (inactive). For the same compound, the GI50 (DU-145) was > 100 µM (inactive), the GI50 (T47D) was > 100 µM (inactive) and the GI50 (786-0) was > 100 µM (inactive). For the same compound, the GI50 (HCT-15) was > 100 µM, the GI50 (MDA-MB-231) was > 100 µM (inactive) and the GI50 (OVCAR-8) was > 100 µM (inactive). The GI50 (HCC 2998) was > 100 µM (inactive), the GI50 (NCI-H460) was > 100 µM (inactive) and the GI50 (SF-268) was > 100 µM (inactive). For the same compound, the GI50 (HOP-62) was > 100 µM (inactive), the GI50 (MDA-N) was > 100 µM (inactive) and the GI50 (SW-620) was > 100 µM (inactive). The GI50 (SK-MEL-2) was > 100 µM (inactive), the GI50 (SNB-75) was > 100 µM (inactive) and the GI50 (UO-31) was > 100 µM (inactive).
For `CC[C@@H](CCCC[C@@H]1CC[C@H]2CC(=O)C[C@@H]12)OC`, the GI50 (OVCAR-4) was > 100 µM (inactive), the GI50 (LOX IMVI) was > 100 µM (inactive) and the GI50 (OVCAR-5) was > 100 µM (inactive). The GI50 (SF-539) was > 100 µM (inactive), the GI50 (UACC-257) was 69.5 µM (inactive) and the GI50 (TK-10) was > 100 µM (inactive). For the same compound, the GI50 (SK-MEL-28) was > 100 µM (inactive), the GI50 (A549) was > 100 µM (inactive) and the GI50 (Hs-578T) was > 100 µM (inactive). The GI50 (Malme-3M) was > 100 µM (inactive), the GI50 (SK-MEL-5) was 85.1 µM (inactive) and the GI50 (SN12C) was > 100 µM (inactive). For the same compound, the GI50 (SR) was > 100 µM (inactive), the GI50 (MDA-MB-435) was > 100 µM (inactive) and the GI50 (NCI/ADR-RES) was 99.5 µM (inactive). The GI50 (K562) was 30.8 µM (inactive), the GI50 (A498) was > 100 µM (inactive) and the GI50 (NCI-H23) was > 100 µM (inactive). The GI50 (CAKI-1) was > 100 µM (inactive), the GI50 (RPMI-8226) was > 100 µM (inactive) and the GI50 (NCI-H522) was > 100 µM (inactive). The GI50 (SF-295) was > 100 µM (inactive), the GI50 (ACHN) was > 100 µM (inactive) and the GI50 (BT-549) was 66.7 µM (inactive). For the same compound, the GI50 (NCI-H226) was > 100 µM (inactive), the GI50 (HL-60) was 43.2 µM (inactive) and the GI50 (HT-29) was > 100 µM (inactive). The GI50 (HCT-15) was > 100 µM, the GI50 (HCC 2998) was > 100 µM (inactive) and the GI50 (SF-268) was > 100 µM (inactive). For the same compound, the GI50 (HOP-62) was > 100 µM (inactive), the GI50 (MDA-N) was > 100 µM (inactive) and the GI50 (SW-620) was > 100 µM (inactive). The GI50 (SNB-75) was > 100 µM (inactive).
With `NNC(=O)CS(=O)(=O)Nc1ncccn1` the GI50 (HCT-116) was > 100 µM (inactive), the GI50 (OVCAR-4) was > 100 µM (inactive) and the GI50 (LOX IMVI) was > 100 µM (inactive). The GI50 (OVCAR-5) was > 100 µM (inactive), the GI50 (SF-539) was > 100 µM (inactive) and the GI50 (UACC-62) was > 100 µM (inactive). For the same compound, the GI50 (UACC-257) was > 100 µM (inactive), the GI50 (TK-10) was 13.2 µM (inactive) and the GI50 (SK-MEL-28) was > 100 µM (inactive). For the same compound, the GI50 (IGROV-1) was > 100 µM (inactive), the GI50 (A549) was > 100 µM (inactive) and the GI50 (Hs-578T) was > 100 µM (inactive). The GI50 (Malme-3M) was > 100 µM (inactive), the GI50 (HOP-92) was > 100 µM (inactive) and the GI50 (SK-MEL-5) was > 100 µM (inactive). The GI50 (SN12C) was > 100 µM (inactive), the GI50 (EKVX) was > 100 µM (inactive) and the GI50 (MDA-MB-435) was > 100 µM (inactive). For the same compound, the GI50 (MCF7) was > 100 µM (inactive), the GI50 (NCI/ADR-RES) was > 100 µM (inactive) and the GI50 (PC-3) was > 100 µM (inactive). For the same compound, the GI50 (RXF 393) was > 100 µM (inactive), the GI50 (K562) was > 100 µM (inactive) and the GI50 (A498) was > 100 µM (inactive). The GI50 (NCI-H23) was > 100 µM (inactive), the GI50 (CAKI-1) was > 100 µM (inactive) and the GI50 (KM12) was > 100 µM (inactive). The GI50 (COLO 205) was > 100 µM (inactive), the GI50 (RPMI-8226) was > 100 µM (inactive) and the GI50 (NCI-H522) was > 100 µM (inactive). For the same compound, the GI50 (U-251) was > 100 µM (inactive), the GI50 (SF-295) was > 100 µM (inactive) and the GI50 (ACHN) was > 100 µM (inactive). The GI50 (SK-OV-3) was > 100 µM (inactive), the GI50 (OVCAR-3) was > 100 µM (inactive) and the GI50 (BT-549) was > 100 µM (inactive). The GI50 (NCI-H226) was > 100 µM (inactive), the GI50 (SNB-19) was > 100 µM (inactive) and the GI50 (M14) was > 100 µM (inactive). The GI50 (HT-29) was > 100 µM (inactive), the GI50 (DU-145) was > 100 µM (inactive) and the GI50 (T47D) was > 100 µM (inactive). The GI50 (786-0) was > 100 µM (inactive), the GI50 (HCT-15) was > 100 µM and the GI50 (MDA-MB-231) was > 100 µM (inactive). The GI50 (OVCAR-8) was > 100 µM (inactive), the GI50 (NCI-H460) was > 100 µM (inactive) and the GI50 (SF-268) was > 100 µM (inactive). For the same compound, the GI50 (HOP-62) was > 100 µM (inactive), the GI50 (MDA-N) was > 100 µM (inactive) and the GI50 (SW-620) was > 100 µM (inactive). The GI50 (SK-MEL-2) was > 100 µM (inactive), the GI50 (SNB-75) was > 100 µM (inactive) and the GI50 (UO-31) was > 100 µM (inactive).
